Data on one molecule can be found in US12084444B2, “Spiro-lactam NMDA modulators and methods of using same” (Tenacia Biotechnology (Hong Kong) Co., Limited, priority 2016, dated 2024).

The structures appear in SMILES notation.

Data set [1] deals with T1, NMDAR2A expressing HEK cell membranes (Homo sapiens, UniProt Q05586+Q12879).
T1 construct: expressed in transfected cells; host or cells: HEK cells (membrane extract)
As to the kind of experiment: NMDAR agonist assay, [3H]MK-801 binding, NMDAR2A. The conditions noted are these: 0.25 h, 50 μM glutamate; read-out: NMDAR2A A: % maximal [3H]MK-801 binding relative to 1 mM glycine. Also on record: key to NMDAR2A B: log EC50: 0=−; ≥1×10^−9 M (e.g., −8)=+; <1×10^−9 M (e.g., −10)=++. Format: biochemical. The procedure, abridged:
(§1)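 HEK membranes (300 μg protein) expressing each subtype were preincubated 15 min at 25 °C with 50 μM glutamate and compound (1×10^−15–1×10^−7 M) or 1 mM glycine. [3H]MK-801 (0.3 μCi) binding then ran 15 min under nonequilibrium conditions, followed by filtration. EC50 and % maximal binding against 1 mM glycine came from three-parameter fits of baseline-subtracted DPM (N=2).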

The target in data set [2] is T2, NMDAR2A expressing HEK cell membranes (Homo sapiens, UniProt Q12879).
T2 construct: expressed in transfected cells; host or cells: HEK cells (membrane extract)
As to the kind of experiment: NMDAR agonist assay, [3H]MK-801 binding, NMDAR2A. Format: biochemical. Also on record: key to NMDAR2A B: log EC50: 0=−; ≥1×10^−9 M (e.g., −8)=+; <1×10^−9 M (e.g., −10)=++. The note with it: 50 μM glutamate. The gist of the method:
as §1

Data set [3] deals with T3, NMDAR2B expressing HEK cell membranes (Homo sapiens, UniProt Q05586+Q13224).
T3 construct: expressed in transfected cells; host or cells: HEK cells (membrane extract)
T3 sequence (Q13224 27-1484, other chains not shown): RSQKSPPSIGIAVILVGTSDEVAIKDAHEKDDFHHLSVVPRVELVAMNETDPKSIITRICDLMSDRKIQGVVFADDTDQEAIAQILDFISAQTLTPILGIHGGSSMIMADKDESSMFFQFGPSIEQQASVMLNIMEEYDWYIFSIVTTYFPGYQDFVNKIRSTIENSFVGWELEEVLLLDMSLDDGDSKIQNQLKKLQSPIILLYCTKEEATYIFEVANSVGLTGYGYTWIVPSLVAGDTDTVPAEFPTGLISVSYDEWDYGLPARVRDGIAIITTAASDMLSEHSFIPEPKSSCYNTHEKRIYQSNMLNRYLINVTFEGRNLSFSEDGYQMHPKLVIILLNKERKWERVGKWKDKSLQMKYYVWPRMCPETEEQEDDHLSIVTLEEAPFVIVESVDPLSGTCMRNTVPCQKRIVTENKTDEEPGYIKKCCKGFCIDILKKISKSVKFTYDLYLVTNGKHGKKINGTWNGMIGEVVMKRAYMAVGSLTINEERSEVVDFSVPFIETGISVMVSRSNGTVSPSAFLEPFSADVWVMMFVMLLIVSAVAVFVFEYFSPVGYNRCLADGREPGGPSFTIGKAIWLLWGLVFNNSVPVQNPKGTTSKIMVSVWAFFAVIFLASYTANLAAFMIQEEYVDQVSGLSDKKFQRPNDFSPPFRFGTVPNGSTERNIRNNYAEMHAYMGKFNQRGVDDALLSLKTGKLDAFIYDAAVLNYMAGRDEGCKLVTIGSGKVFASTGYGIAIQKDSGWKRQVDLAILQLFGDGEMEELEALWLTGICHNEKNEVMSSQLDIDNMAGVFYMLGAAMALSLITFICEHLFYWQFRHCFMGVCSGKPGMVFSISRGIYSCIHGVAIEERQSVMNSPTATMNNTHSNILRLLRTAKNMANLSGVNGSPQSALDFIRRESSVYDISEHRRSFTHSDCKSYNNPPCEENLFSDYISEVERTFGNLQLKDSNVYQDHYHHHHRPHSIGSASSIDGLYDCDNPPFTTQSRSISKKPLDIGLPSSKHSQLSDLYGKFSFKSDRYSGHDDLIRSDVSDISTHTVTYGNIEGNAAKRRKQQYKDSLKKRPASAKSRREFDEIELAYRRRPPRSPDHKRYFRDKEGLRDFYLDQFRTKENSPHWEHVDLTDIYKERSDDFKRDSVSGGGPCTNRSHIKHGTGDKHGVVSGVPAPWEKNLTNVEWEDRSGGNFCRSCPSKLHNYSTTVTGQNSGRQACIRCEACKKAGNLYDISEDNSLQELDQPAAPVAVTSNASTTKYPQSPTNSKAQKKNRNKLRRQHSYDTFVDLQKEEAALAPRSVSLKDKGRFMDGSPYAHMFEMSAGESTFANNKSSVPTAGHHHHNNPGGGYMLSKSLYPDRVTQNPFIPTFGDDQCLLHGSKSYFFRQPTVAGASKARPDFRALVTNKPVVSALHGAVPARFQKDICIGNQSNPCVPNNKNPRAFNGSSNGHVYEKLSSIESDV
Put plainly: NMDAR agonist assay, [3H]MK-801 binding, NMDAR2B. Type of data set: biochemical. The conditions noted are these: 50 μM glutamate. The procedure, abridged:
as §1

For data set [4], the target named is T4, NMDAR2C expressing HEK cell membranes (Homo sapiens, UniProt Q14957).
T4 construct: expressed in transfected cells; host or cells: HEK cells (membrane extract)
T4 sequence (Q14957 20-1233, other chains not shown): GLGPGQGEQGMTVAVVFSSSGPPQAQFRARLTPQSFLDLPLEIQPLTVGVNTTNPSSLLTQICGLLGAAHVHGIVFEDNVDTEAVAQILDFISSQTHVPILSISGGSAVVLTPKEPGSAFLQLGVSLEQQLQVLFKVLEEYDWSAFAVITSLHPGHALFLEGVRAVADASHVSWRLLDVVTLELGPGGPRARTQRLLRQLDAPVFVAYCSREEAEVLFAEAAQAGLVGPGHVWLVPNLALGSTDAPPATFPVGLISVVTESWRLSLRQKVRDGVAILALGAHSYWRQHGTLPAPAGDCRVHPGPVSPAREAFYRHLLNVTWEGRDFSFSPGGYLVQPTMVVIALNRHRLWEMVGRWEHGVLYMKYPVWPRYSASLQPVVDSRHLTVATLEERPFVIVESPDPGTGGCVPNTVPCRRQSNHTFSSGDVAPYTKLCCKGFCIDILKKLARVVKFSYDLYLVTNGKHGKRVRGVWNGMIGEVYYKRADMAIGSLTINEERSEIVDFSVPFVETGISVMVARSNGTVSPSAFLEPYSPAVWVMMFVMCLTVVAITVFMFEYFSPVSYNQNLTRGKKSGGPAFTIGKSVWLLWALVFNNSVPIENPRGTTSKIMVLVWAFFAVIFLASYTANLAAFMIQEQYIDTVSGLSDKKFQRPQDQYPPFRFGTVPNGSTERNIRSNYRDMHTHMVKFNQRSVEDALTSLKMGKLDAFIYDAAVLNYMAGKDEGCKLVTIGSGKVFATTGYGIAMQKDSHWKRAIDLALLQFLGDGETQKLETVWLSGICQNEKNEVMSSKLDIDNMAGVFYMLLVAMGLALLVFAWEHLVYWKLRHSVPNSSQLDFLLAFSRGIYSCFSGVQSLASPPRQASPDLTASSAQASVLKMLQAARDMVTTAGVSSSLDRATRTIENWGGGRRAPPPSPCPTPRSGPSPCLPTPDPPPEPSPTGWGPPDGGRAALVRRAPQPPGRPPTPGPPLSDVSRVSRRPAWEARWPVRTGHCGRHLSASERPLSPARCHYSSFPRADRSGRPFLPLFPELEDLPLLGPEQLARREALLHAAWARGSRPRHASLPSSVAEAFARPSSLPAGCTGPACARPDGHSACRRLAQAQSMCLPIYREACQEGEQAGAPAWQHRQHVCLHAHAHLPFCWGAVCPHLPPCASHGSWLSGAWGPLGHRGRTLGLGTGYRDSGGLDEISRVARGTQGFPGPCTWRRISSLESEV
As to the kind of experiment: NMDAR agonist assay, [3H]MK-801 binding, NMDAR2C. Type of data set: biochemical. The conditions noted are these: 50 μM glutamate. As to the method:
(§2) Assays were conducted as described by Moskal et al., “GLYX-13: a monoclonal antibody-derived peptide that acts as an N-methyl-D-aspartate receptor modulator,” Neuropharmacology, 49, 1077-87, 2005. These studies were designed to determine if the test compounds act to facilitate NMDAR activation in NMDAR2A, NMDAR2B, NMDAR2C or NMDAR2D expressing HEK cell membranes as measured by increases in [^3H]MK-801 binding.
(§3) In the assay, 300 μg of NMDAR expressing HEK cell membrane extract protein was preincubated for 15 minutes at 25° C. in the presence of saturating concentrations of glutamate (50 μM) and varying concentrations of test compound (1×10^−15 M-1×10^−7 M), or 1 mM glycine. Following the addition of 0.3 μCi of [^3H]MK-801 (22.5 Ci/mmol), reactions were again incubated for 15 minutes at 25° C. (nonequilibrium conditions). Bound and free [^3H]MK-801 were separated via rapid filtration using a Brandel apparatus.
In analyzing the data, the DPM (disintegrations per minute) of [^3H]MK-801 remaining on the filter were measured for each concentration of test compound or for 1 mM glycine. The DPM values for each concentration of a ligand (N=2) were averaged. The baseline value was determined from the best fit curve of the DPM values modeled using the GraphPad program and the log(agonist) vs. response(three parameters) algorithm was then subtracted from all points in the dataset. The % maximal [^3H]MK-801 binding was then calculated relative to that of 1 mM glycine: all baseline subtracted DPM values were divided by the average value for 1 mM glycine. The EC50 and % maximal activity were then obtained from the best fit curve of the % maximal [^3H]MK-801 binding data modelled using the GraphPad program and the log(agonist) vs. response(three parameters) algorithm. […]

Data set [5] concerns the target T5, NMDAR2D expressing HEK cell membranes (Homo sapiens, UniProt O15399).
T5 construct: expressed in transfected cells; host or cells: HEK cells (membrane extract)
Put plainly: NMDAR agonist assay, [3H]MK-801 binding, NMDAR2D. Type of data set: biochemical. The note with it: 50 μM glutamate. As for the experimental part: as §2, §3
(§4) In analyzing the data, the DPM (disintegrations per minute) of [^3H]MK-801 remaining on the filter were measured for each concentration of test compound or for 1 mM glycine. The DPM values for each concentration of a ligand (N=2) were averaged. The baseline value was determined from the best fit curve of the DPM values modeled using the GraphPad program and the log(agonist) vs. response(three parameters) algorithm was then subtracted from all points in the dataset. The % maximal [^3H]MK-801 binding was then calculated relative to that of 1 mM glycine: all baseline subtracted DPM values were divided by the average value for 1 mM glycine. The EC50 and % maximal activity were then obtained from the best fit curve of the % maximal [^3H]MK-801 binding data modelled using the GraphPad program and the log(agonist) vs. response(three parameters) algorithm.
(§5) The tables below summarize the results for the wild type NMDAR agonists NMDAR2A, NMDAR2B, NMDAR2C, and NMDAR2D, and whether the compound is not an agonist (−), is an agonist (+), or is a strong agonist (++), where column A is based on the % maximal [^3H]MK-801 binding relative to 1 mM glycine (−=0; <100%=+; and >100%=++); and column B is based on log EC50 values (0=−; ≥1×10^−9 M (e.g., −8)=+; and <1×10^−9 M (e.g., −10)=++).

Data set [6] has as its target T6, NMDAR2D expressing HEK cell membranes (Homo sapiens, UniProt O15399+Q05586).
T6 construct: expressed in transfected cells; host or cells: HEK cells (membrane extract)
As to the kind of experiment: NMDAR agonist assay, [3H]MK-801 binding, NMDAR2D. Type of data set: biochemical. The note with it: 50 μM glutamate; read-out: NMDAR2D B: log EC50 (converted). As for the experimental part:
as §2, §3, §4, §5

The nature of another data set: IV pharmacokinetics. Set-up: species or system Sprague Dawley rats. The conditions noted are these: Sprague Dawley, in vivo, rat, 2 mg/kg, normal saline. As to the method: Sprague Dawley rats were dosed intravenously using a normal saline formulation containing 2 mg/kg of the compounds identified in the below table. The table below summarizes the results of the IV pharmacokinetics.

Data set [7] is described as follows: Oral pharmacokinetics (plasma, brain, CSF). Format: in vivo, Sprague Dawley rats. The conditions noted are these: rat, per os, 10 mg/kg. As to the method: In another experiment, Sprague Dawley rats were dosed per os using a normal saline formulation containing 10 mg/kg of the compounds identified in the table below. Plasma, brain, and CSF samples were analyzed at various time points over a 24 hour period. The table below summarizes the results of the oral pharmacokinetics.

For a further data set, the system named is Sprague Dawley rats. As to the kind of experiment: Porsolt forced swim test. Type of data set: in vivo. The note with it: 0.1 mg/kg; for % reduction in float time: relative to vehicle group. As for the experimental part:
A non-clinical in vivo pharmacology study (Porsolt assay) was performed to measure antidepressant-like effects. A negative control (0.5% sodium carboxymethyl cellulose in 0.9% sterile saline vehicle) and a positive control (fluoxetine) are shown for comparison against test compound. The study allowed for the evaluation of the effects of each compound on the Porsolt forced swim test as assessed by the rats' response (reduced floating time) during a 5-minute swimming test.
Male 2-3 month old Sprague Dawley rats were used (Harlan, Indianapolis, IN). Rats were housed in Lucite cages with aspen wood chip bedding, maintained on a 12:12 light:dark cycle (lights on at 5 AM), and given ad libitum access to Purina lab chow (USA) and tap water throughout the study.
The Porsolt forced swim test adapted for use in rats was performed as described by Burgdorf et al., (The long-lasting antidepressant effects of rapastinel (GLYX-13) are associated with a metaplasticity process in the medial prefrontal cortex and hippocampus. Neuroscience 308:202-211, 2015). Animals were placed in a 46 cm tall×20 cm in diameter clear glass tube filled to 30 cm with tap water (23±1° C.) for 15 min on the first day (habituation) and 5 min on the subsequent test day. Positive control fluoxetine was dosed 3 times (24 h, 5 h and 1 h) prior to testing. Animals were tested 1 h or 24 h post-dosing with the test compounds or vehicle. Animals received a 15 min habituation session 1 day before the 5 min test. Water was changed after every other animal. Animals were videotaped, and floating time as defined as the minimal amount of effort required to keep the animals head above water was scored offline by a blinded experimenter with high inter-rater reliability (Pearson's r>0.9).
Each compound tested at dose level shown. Significance vs. vehicle group for each experiment is marked. […] A compound marked “No” was not statistically significant from vehicle. Data was averaged for test compound and vehicle groups (N approximately 8 per group) and the percent reduction in floating for group treated with test compound relative to group treated with vehicle is shown.

T5 sequence (O15399 28-1336, other chains not shown): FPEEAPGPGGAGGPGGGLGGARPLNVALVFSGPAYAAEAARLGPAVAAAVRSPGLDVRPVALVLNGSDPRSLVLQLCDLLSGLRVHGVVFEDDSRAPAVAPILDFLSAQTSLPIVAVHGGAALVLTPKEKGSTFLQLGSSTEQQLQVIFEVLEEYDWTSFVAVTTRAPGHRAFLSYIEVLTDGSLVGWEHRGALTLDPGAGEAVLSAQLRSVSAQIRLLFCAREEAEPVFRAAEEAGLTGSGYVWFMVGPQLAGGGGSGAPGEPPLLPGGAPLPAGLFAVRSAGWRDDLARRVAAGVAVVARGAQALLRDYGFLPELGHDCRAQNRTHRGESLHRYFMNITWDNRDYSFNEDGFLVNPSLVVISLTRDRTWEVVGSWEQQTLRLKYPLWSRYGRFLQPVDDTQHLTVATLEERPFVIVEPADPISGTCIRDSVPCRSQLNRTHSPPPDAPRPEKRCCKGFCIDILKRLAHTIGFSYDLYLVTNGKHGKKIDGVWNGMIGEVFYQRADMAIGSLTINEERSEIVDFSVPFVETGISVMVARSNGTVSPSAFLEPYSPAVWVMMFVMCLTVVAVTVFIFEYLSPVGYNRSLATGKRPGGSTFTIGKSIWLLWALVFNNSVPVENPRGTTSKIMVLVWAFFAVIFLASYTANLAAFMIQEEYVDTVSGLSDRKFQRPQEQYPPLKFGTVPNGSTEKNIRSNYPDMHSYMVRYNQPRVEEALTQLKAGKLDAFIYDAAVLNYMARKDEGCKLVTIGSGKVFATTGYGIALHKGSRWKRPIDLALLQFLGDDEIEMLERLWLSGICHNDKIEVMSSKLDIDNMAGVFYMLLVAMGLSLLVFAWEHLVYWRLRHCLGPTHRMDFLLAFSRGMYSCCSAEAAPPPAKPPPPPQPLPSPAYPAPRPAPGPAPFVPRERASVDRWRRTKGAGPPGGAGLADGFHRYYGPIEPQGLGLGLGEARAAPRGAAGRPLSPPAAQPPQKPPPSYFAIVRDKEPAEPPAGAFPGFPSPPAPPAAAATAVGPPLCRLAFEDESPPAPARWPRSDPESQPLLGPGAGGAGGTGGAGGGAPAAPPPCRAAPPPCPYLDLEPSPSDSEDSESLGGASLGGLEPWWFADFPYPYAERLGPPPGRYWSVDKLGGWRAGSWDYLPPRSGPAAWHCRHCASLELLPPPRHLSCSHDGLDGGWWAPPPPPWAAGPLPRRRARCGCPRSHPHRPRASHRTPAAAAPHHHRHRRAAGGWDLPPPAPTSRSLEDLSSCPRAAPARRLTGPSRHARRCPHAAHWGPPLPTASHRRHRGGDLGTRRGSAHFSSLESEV
T6 sequence (O15399 28-1336, other chains not shown): as above

As usually defined, the EC50 is the concentration that produces a half-maximal response. For orientation: AUC(0-t) means exposure summed from dosing to a finite time, without extrapolation to infinity. By clearance is commonly meant the volume of plasma or blood freed of the substance per unit of time. For orientation: half-life means how long it takes for the measured level to halve. The bioavailability is the share of a dose that reaches the circulation, judged against a reference dose that is usually intravenous. The Tmax is the time at which the peak concentration occurs. What is called Cmax is the maximum level reached in the sampled fluid or tissue. Take `COc1ccc(CN2CC3(CCNC(=O)C3)C2=O)cc1` (racemic) [AA-rac, 2-(4-methoxybenzyl)-2,7-diazaspiro[3.5]nonane-1,6-dione]: the Emax in data set [1] is 0%. Besides, the “NMDAR2A B: log EC50” value in data set [2] is “−”. For the same molecule, in [3] (read-out: NMDAR2B B: log EC50 (converted)), the EC50 is below 1 nM. The Emax in [3] (0.25 h, read-out: NMDAR2B A: % maximal [3H]MK-801 binding relative to 1 mM glycine) was below 100%. The “NMDAR2C A: % maximal [3H]MK-801 binding relative to 1 mM glycine” value in [4] is “− (−=0)”. Moreover, in [5], the “NMDAR2D A: % maximal [3H]MK-801 binding relative to 1 mM glycine” value is “+ (<100%=+)”. Besides, the EC50 in data set [6] was below 1 nM. In addition, in the data set “IV pharmacokinetics”, the AUC(0-t) amounted to 6300 ng·h/mL, the C0 turned out to be 5790 ng/mL, the clearance came to 5.28 mL/min/kg and the half-life was 3.31 h. The Vd in the data set “IV pharmacokinetics” (read-out: Vss) came out at 0.56 L/kg. Besides, in [7] (Sprague Dawley, plasma, po), the AUC(0-t) was determined as 17800 ng·h/mL and the bioavailability was 57%. Besides, in [7] (Sprague Dawley, plasma, po, normal saline), the Tmax was found to be 0.67 h. Further, in [7] (Sprague Dawley, po, plasma), the concentration peaked (Cmax) at 5810 ng/mL. The “CSF Cmax” value in data set [7] (CSF) turned out to be 1466.9 ng/mL. Moreover, in [7] (brain), the “Brain Cmax” value came out at 951 ng/mL. Moreover, in the data set on Sprague Dawley rats (1 h post-dose), the Significance vs. vehicle result is listed as “Yes (found to be statistically significant (p<=0.05) from vehicle at dose level shown)” and the “% reduction in float time” value was 77.4%. Besides, in the data set on Sprague Dawley rats (24 h post-dose), the Significance vs. vehicle entry was “Yes (found to be statistically significant (p<=0.05) from vehicle at dose level shown)” and the “% reduction in float time” value came out at 74.40%.
